{
  "source": "patent EP0497314A1",
  "about": "“Use of azapirones in attention deficit hyperactivity disorder” (Bristol-Myers Squibb Company, priority 1991, dated 1992)",
  "key": {"[1]": {"tested_on": "evoked electrographic activity", "details": "limited number of cats; John, et al, 1973; cited from earlier work"}, "[2]": {"tested_on": "fronto-occipital cortex of the cat", "assay": "Quantitative EEG, fronto-occipital cat cortex, subcutaneous administration", "type": "in vivo, cats", "details": "for EEG profile: cat cortex; for group percent change in electrical energy from pre-drug control, Δ band / mean change ± S.E. in electrical energy from pre-drug control, Δ band / group percent change in electrical energy from pre-drug control, α band / mean change ± S.E. in electrical energy from pre-drug control, α band / group percent change in electrical energy from pre-drug control, β band / mean change ± S.E. in electrical energy from pre-drug control, β band / group percent change in electrical energy from pre-drug control, γ band / mean change ± S.E. in electrical energy from pre-drug control, γ band: fronto-occipital cat cortex; for group percent change in electrical energy from pre-drug control, α band / mean change ± S.E. in electrical energy from pre-drug control, α band: α= 7-13 Hz; for group percent change in electrical energy from pre-drug control, β band / mean change ± S.E. in electrical energy from pre-drug control, β band: β= 13-25 Hz; for group percent change in electrical energy from pre-drug control, γ band / mean change ± S.E. in electrical energy from pre-drug control, γ band: γ= 25-40 Hz", "in_short": "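Adult female mongrel cats (n=6 per group) with implanted electrodes were recorded while held in restraining bags, with EEG filtered into Δ, ϑ, α, β and γ bands and integrated as energy counts. Drugs were given subcutaneously in saline, with doses calculated as free base, and recording started 30 min post-injection. Changes from each animal's pre-treatment control were tested by paired Student t-test (P≦0.05).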"}, "[3]": {"details": "Δ = 0.05-35 Hz, 0.125 mg/kg free base s.c."}, "[4]": {"details": "Δ = 0.05-35 Hz, 0.5 mg/kg free base s.c."}, "[5]": {"details": "Δ = 0.5-3.5 Hz, 0.25 mg/kg free base s.c."}, "[6]": {"details": "Δ = 0.5-3.5 Hz, 2.0 mg/kg free base s.c."}, "[7]": {"details": "Δ = 0.5-3.5 Hz, 8.0 mg/kg free base s.c."}},
  "note": "Counter-ions that a name gives are not always drawn. Marks after values point to notes of the source that are not given here.",
  "data": [
    {"smiles": "O=C1CC2(CCCC2)CC(=O)N1CCCCN1CCN(c2ncccn2)CC1", "note": "[Buspirone HCl, buspirone hydrochloride]", "values": [
      {"measurement": "effect on evoked electrographic activity", "setting": "[1]", "result": "possessed properties similar to both chlorpromazine and methamphetamine"},
      {"measurement": "minimal effective dose", "setting": "[2]; Felis catus, sc, fronto-occipital cat cortex EEG, dose of free base, read-out: the minimum dose required to produce the EEG profile characteristic of that particular drug", "result": 0.25, "unit": "mg/kg"},
      {"measurement": "doses required to produce the combined antipsychotic-stimulant EEG profile", "setting": "[2]; cat cortex EEG, s.c.", "result": "at least twice that of thioridazine and chlorpromazine"},
      {"measurement": "EEG profile", "setting": "[2]; 8.0 mg/kg dose, s.c.", "result": "causes an increase in electrical \"power\" in the lowest frequency bands"},
      {"measurement": "EEG profile", "setting": "[2]; higher dose (2.0 and 8.0 mg/kg, s.c.)", "result": "elicit a profile which deviates from that produced by the stimulants"},
      {"measurement": "the no-effect dose", "setting": "[2]; fronto-occipital cat cortex EEG, dose of free base", "result": "0.125† mg/kg, s.c."},
      {"measurement": "group percent change in electrical energy from pre-drug control, Δ band", "setting": "[2]; [3]", "result": -21, "unit": "%"},
      {"measurement": "mean change ± S.E. in electrical energy from pre-drug control, Δ band", "setting": "[2]; [3]", "result": "-46 ± 27", "unit": "instrument counts"},
      {"measurement": "group percent change in electrical energy from pre-drug control, Δ band", "setting": "[2]; [4]", "result": -14, "unit": "%"},
      {"measurement": "mean change ± S.E. in electrical energy from pre-drug control, Δ band", "setting": "[2]; [4]", "result": "-31 ± 18", "unit": "instrument counts"},
      {"measurement": "group percent change in electrical energy from pre-drug control, Δ band", "setting": "[2]; [5]", "result": "+5%"},
      {"measurement": "mean change ± S.E. in electrical energy from pre-drug control, Δ band", "setting": "[2]; [5]", "result": "+10 ± 8 instrument counts"},
      {"measurement": "group percent change in electrical energy from pre-drug control, Δ band", "setting": "[2]; [6]", "result": "+15%"},
      {"measurement": "mean change ± S.E. in electrical energy from pre-drug control, Δ band", "setting": "[2]; [6]", "result": "+30 ± 22 instrument counts"},
      {"measurement": "group percent change in electrical energy from pre-drug control, Δ band", "setting": "[2]; [7]", "result": "+55%"},
      {"measurement": "mean change ± S.E. in electrical energy from pre-drug control, Δ band", "setting": "[2]; [7]", "result": "+89 ± 29 instrument counts"},
      {"measurement": "group percent change in electrical energy from pre-drug control, α band", "setting": "[2]; 0.125 mg/kg free base s.c.", "result": -18, "unit": "%"},
      {"measurement": "mean change ± S.E. in electrical energy from pre-drug control, α band", "setting": "[2]; 0.125 mg/kg free base s.c.", "result": "-23 ± 12", "unit": "instrument counts"},
      {"measurement": "group percent change in electrical energy from pre-drug control, α band", "setting": "[2]; 0.25 mg/kg free base s.c.", "result": -26, "unit": "%"},
      {"measurement": "mean change ± S.E. in electrical energy from pre-drug control, α band", "setting": "[2]; 0.25 mg/kg free base s.c.", "result": "-35 ± 6", "unit": "instrument counts"},
      {"measurement": "group percent change in electrical energy from pre-drug control, α band", "setting": "[2]; 0.5 mg/kg free base s.c.", "result": -39, "unit": "%"},
      {"measurement": "mean change ± S.E. in electrical energy from pre-drug control, α band", "setting": "[2]; 0.5 mg/kg free base s.c.", "result": "-47 ± 12", "unit": "instrument counts"},
      {"measurement": "group percent change in electrical energy from pre-drug control, α band", "setting": "[2]; 2.0 mg/kg free base s.c.", "result": -15, "unit": "%"},
      {"measurement": "mean change ± S.E. in electrical energy from pre-drug control, α band", "setting": "[2]; 2.0 mg/kg free base s.c.", "result": "-20 ± 14", "unit": "instrument counts"},
      {"measurement": "group percent change in electrical energy from pre-drug control, α band", "setting": "[2]; 8.0 mg/kg free base s.c.", "result": -6, "unit": "%"},
      {"measurement": "mean change ± S.E. in electrical energy from pre-drug control, α band", "setting": "[2]; 8.0 mg/kg free base s.c.", "result": "-5 ± 14", "unit": "instrument counts"},
      {"measurement": "group percent change in electrical energy from pre-drug control, β band", "setting": "[2]; 0.125 mg/kg free base s.c.", "result": -6, "unit": "%"},
      {"measurement": "mean change ± S.E. in electrical energy from pre-drug control, β band", "setting": "[2]; 0.125 mg/kg free base s.c.", "result": "-6 ± 4", "unit": "instrument counts"},
      {"measurement": "group percent change in electrical energy from pre-drug control, β band", "setting": "[2]; 0.25 mg/kg free base s.c.", "result": -17, "unit": "%"},
      {"measurement": "mean change ± S.E. in electrical energy from pre-drug control, β band", "setting": "[2]; 0.25 mg/kg free base s.c.", "result": "-24 ± 5", "unit": "instrument counts"},
      {"measurement": "group percent change in electrical energy from pre-drug control, β band", "setting": "[2]; 0.5 mg/kg free base s.c.", "result": -23, "unit": "%"},
      {"measurement": "mean change ± S.E. in electrical energy from pre-drug control, β band", "setting": "[2]; 0.5 mg/kg free base s.c.", "result": "-24 ± 3", "unit": "instrument counts"},
      {"measurement": "group percent change in electrical energy from pre-drug control, β band", "setting": "[2]; 2.0 mg/kg free base s.c.", "result": -24, "unit": "%"},
      {"measurement": "mean change ± S.E. in electrical energy from pre-drug control, β band", "setting": "[2]; 2.0 mg/kg free base s.c.", "result": "-33 ± 8", "unit": "instrument counts"},
      {"measurement": "group percent change in electrical energy from pre-drug control, β band", "setting": "[2]; 8.0 mg/kg free base s.c.", "result": -21, "unit": "%"},
      {"measurement": "mean change ± S.E. in electrical energy from pre-drug control, β band", "setting": "[2]; 8.0 mg/kg free base s.c.", "result": "-22 ± 7", "unit": "instrument counts"},
      {"measurement": "group percent change in electrical energy from pre-drug control, γ band", "setting": "[2]; 0.125 mg/kg free base s.c.", "result": "+5%"},
      {"measurement": "mean change ± S.E. in electrical energy from pre-drug control, γ band", "setting": "[2]; 0.125 mg/kg free base s.c.", "result": "+4 ± 3 instrument counts"},
      {"measurement": "group percent change in electrical energy from pre-drug control, γ band", "setting": "[2]; 0.25 mg/kg free base s.c.", "result": 0, "unit": "%"},
      {"measurement": "mean change ± S.E. in electrical energy from pre-drug control, γ band", "setting": "[2]; 0.25 mg/kg free base s.c.", "result": "-1 ± 3", "unit": "instrument counts"},
      {"measurement": "group percent change in electrical energy from pre-drug control, γ band", "setting": "[2]; 0.5 mg/kg free base s.c.", "result": -5, "unit": "%"}
    ]}
  ]
}
